Data on 16 compounds can be found in patent US11680056B2, “MK2 inhibitors and uses thereof” (Xinthera, Inc., priority 2021, dated 2023).

Like-named read-outs stand apart in the source and are kept apart here.

The target of one assay is p38a/MK2 (Homo sapiens (Human), UniProt P49137+Q16539). The assay is described as follows: p38a/MK2 biochemical assay: activation of MK2 by p38, FITC-HSP27 peptide phosphorylation (IMAP FP). The settings on record: 10-point 1:3 dilution, 60 pM active p38a, 1 nM inactive MK2, 10 μM ATP, 2 h incubation. On the procedure: (§1) Expression vectors of the recombinant MK2 and PRAK kinases were constructed by cloning of the codon optimized gene sequences of MK2 (Uniprot ID P49137, amino acid fragment F46-H400), or PRAK (Uniprot ID Q81W41, amino acid fragment M1-Q471) into pGEX-4T1 (GE) for over expression of these kinases with N-terminal GST-tag. Protein expression was carried out in E. coli BL21 by growing the hosts in TB medium, induction of protein expression with 0.5 mM IPTG at approximate 0.8 OD600, and incubation of the cultures at 18° C. for 14-20 hours afterwards. The harvested cells were resuspended in […] of Lysis buffer (50 mM Tris-HCl, pH 8.0, 500 mM NaCl, 1 mM DTT, 5% glycerol, and 1 mM PMSF) per gram of wet cell mass and homogenized at 4° C. in a microfluidizer (ATS, Suzhou, China) at 14,000 psi pressure, 3 passes. The cell lysates were clarified by centrifugation and the supernatants containing the GST-fusion proteins were purified by affinity chromatography using GSH-Sepharose (GE) gravity flow columns pre-equilibrated in Buffer A (50 mM Tris-HCl, pH 8.0, 500 mM NaCl, 1 mM DTT, and 5% glycerol). After thorough washing of the columns with Buffer A, the bound GST-proteins were eluted by Buffer B (50 mM Tris, pH 8.0, 500 mM NaCl, 1 mM DTT, 5% glycerol, 10 mM glutathione), followed by size-exclusion purification on Superdex 200 column equilibrated in Buffer A. The purified proteins were concentrated to approximately 1 mg/ml and stored at −80° C.
Sequence of p38a/MK2 (P49137 46-400): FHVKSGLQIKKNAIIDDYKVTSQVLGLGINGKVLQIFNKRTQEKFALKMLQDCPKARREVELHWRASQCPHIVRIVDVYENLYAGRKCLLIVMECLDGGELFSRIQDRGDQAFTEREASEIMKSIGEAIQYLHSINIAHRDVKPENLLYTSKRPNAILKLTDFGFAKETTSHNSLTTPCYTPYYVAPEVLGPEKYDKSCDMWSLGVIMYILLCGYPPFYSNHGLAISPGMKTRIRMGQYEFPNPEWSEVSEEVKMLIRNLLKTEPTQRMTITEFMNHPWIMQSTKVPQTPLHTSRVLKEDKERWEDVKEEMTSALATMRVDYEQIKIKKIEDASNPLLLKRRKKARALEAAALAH
Sequence of p38a/MK2 (Q16539 whole entry, the tested form may be a part): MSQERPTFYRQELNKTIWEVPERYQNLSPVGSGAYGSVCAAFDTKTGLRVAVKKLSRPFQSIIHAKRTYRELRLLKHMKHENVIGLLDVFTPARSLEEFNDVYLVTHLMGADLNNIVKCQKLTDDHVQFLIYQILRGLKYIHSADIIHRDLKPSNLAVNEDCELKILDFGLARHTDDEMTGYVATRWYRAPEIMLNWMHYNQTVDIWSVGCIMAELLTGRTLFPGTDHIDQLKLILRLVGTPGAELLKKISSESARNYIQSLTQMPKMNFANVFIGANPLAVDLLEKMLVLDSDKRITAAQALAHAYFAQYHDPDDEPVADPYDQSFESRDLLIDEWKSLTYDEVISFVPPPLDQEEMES
This study evaluates the inhibitory potency of invention compound on p38/MK2 pathway vs p38/PRAK pathway. More specially the compound concentration (IC50) was determined that inhibited half of the maximal activation of MK2 or PRAK by p38. MK2 activation study was set up without or with a serial of 10-point 1:[…], and PRAK activation study was set up without or with a serial of 10-point 1:3 dilution of invention compound at top dose of 300 μM. The MK2 and PRAK activity were determined by the phosphorylation level of HSP27 peptide conjugated with FITC.
(§2) After 2 h incubation of the reaction mixture with various concentration of invention compound (200 nL), 60 μL 1×IMAP solution Mixture (Molecular Devices, Cat R8127) was added to the reaction mixture and incubated for another half hour. The signal was then read by Synergy™ Neo2 Multi-Mode Microplate Reader with filter setting (Ex/Em=485 nm/FITC FP-P pol 528 nm & FITC FP-S pol 528 nm)
(§3) The signal was then normalized to vehicle control and fitted in Xfit to generate IC50. The selectivity of MK2 over PRAK was calculated by the formular Selectivity=IC50 of PRAK/IC50 of MK2.

A further assay concerns the target p38a/PRAK (Homo sapiens (Human), UniProt Q16539). The assay is described as follows: p38a/PRAK biochemical assay: activation of PRAK by p38, FITC-HSP27 peptide phosphorylation (IMAP FP). The conditions noted are these: 10-point 1:3 dilution, top dose 300 μM; 60 pM active p38a, 1 nM inactive PRAK, 10 μM ATP, 2 h incubation; read-out: p38a/PRAK Enzyme pIC50 (converted). On the procedure: as §1
This study evaluates the inhibitory potency of invention compound on p38/MK2 pathway vs p38/PRAK pathway. More specially the compound concentration (IC50) was determined that inhibited half of the maximal activation of MK2 or PRAK by p38. MK2 activation study was set up without or with a serial of 10-point 1:3 dilution of invention compound at top dose of […], and PRAK activation study was set up without or with a serial of 10-point 1:3 dilution of invention compound at top dose of 300 μM. The MK2 and PRAK activity were determined by the phosphorylation level of HSP27 peptide conjugated with FITC.
as §2, §3

The mark [1] stands for this setting: top dose 1 μM, read-out: p38a/MK2 (1 μM) Enzyme pIC50 (converted).
The mark [2] stands for this setting: top dose 10 μM, read-out: p38a/MK2 (10 μM) Enzyme pIC50 (converted).

Sequence of p38a/PRAK (Q16539 whole entry): as the sequence (Q16539 whole entry, the tested form may be a part) above

For the compound `Cc1cnc(COc2cc(C)n(-c3cc(-c4ccnc(C(C)(C)O)n4)ncc3C)c(=O)c2Cl)c(F)c1` (single isomer, unassigned) [Example 23A, rel-3-chloro-4-[(3-fluoro-5-methylpyridin-2-yl)methoxy]-2′-[2-(2-hydroxypropan-2-yl)pyrimidin-4-yl]-5′,6-dimethyl-[1,4′-bipyridin]-2-one], the IC50 is 3.16 nM on p38a/MK2 (setting [1]) and 12600 nM on p38a/PRAK.
As to `Cc1cnc(-c2cccc([C@H](O)CO)n2)cc1-n1c(C)cc(OCc2ncc(F)cc2F)c(Cl)c1=O` (single isomer, unassigned) [Example 34B, rel-3-chloro-4-[(3,5-difluoropyridin-2-yl)methoxy]-2′-[6-(1,2-dihydroxyethyl)pyridin-2-yl]-5′,6-dimethyl-[1,4′-bipyridin]-2-one], the figures for the IC50 on p38a/MK2 (setting [2]) and on p38a/PRAK were 12.6 nM and 6310 nM, respectively.
Take `Cc1cnc(-c2ccnc(C(O)C3CC3)n2)cc1-n1c(C)cc(OCc2ncc(F)cc2F)c(Cl)c1=O` (single isomer, unassigned) [Example 35B, rel-3-chloro-2′-{2-[cyclopropyl(hydroxy)methyl]pyrimidin-4-yl}-4-[(3,5-difluoropyridin-2-yl)methoxy]-5′,6-dimethyl-[1,4′-bipyridin]-2-one]: the IC50 at p38a/MK2 (setting [1]) was 15.8 nM; on p38a/PRAK, 5010 nM.
In the same order, the values of `[2H]C([2H])(Oc1cc(C)n(-c2c(C)cnc(-n3ccc(C(C)(C)O)n3)c2F)c(=O)c1Cl)c1ncc(F)cc1F` [Example 58A, rel-3-chloro-4-[(3,5-difluoropyridin-2-yl)(2H2)methoxy]-3′-fluoro-2′-[3-(2-hydroxypropan-2-yl)pyrazol-1-yl]-5′,6-dimethyl-[1,4′-bipyridin]-2-one] are 1.26 nM and 1000 nM.
In the same order, the values of `Cc1cnc(-c2ccnc(C(C)(C)CO)n2)cc1-n1c(C)cc(OCc2ncc(F)cc2F)c(Cl)c1=O` (single isomer, unassigned) [Example 4A, rel-3-chloro-4-[(3,5-difluoropyridin-2-yl)methoxy]-2′-[2-(1-hydroxy-2-methylpropan-2-yl)pyrimidin-4-yl]-5′,6-dimethyl-[1,4′-bipyridin]-2-one] are 1.58 nM and 3980 nM.
As to `Cc1cnnc(COc2cc(C)n(-c3cc(-c4ccnc(C(C)(C)O)n4)ncc3C)c(=O)c2Cl)c1` [Example 28A, rel-3-chloro-2′-[2-(2-hydroxypropan-2-yl)pyrimidin-4-yl]-5′,6-dimethyl-4-[(5-methylpyridazin-3-yl)methoxy]-[1,4′-bipyridin]-2-one], the values for the IC50 on p38a/MK2 (setting [2]) and at p38a/PRAK were 3980 nM and over 316000 nM, respectively.
For the compound `CCc1cnc(-c2ccnc(C(C)(C)O)n2)cc1-n1c(C)cc(OCc2ncc(F)cc2F)c(Cl)c1=O` (single isomer, unassigned) [Example 29A, rel-3-chloro-4-((3,5-difluoropyridin-2-yl)methoxy)-5′-ethyl-2′-(2-(2-hydroxypropan-2-yl)pyrimidin-4-yl)-6-methyl-2H-[1,4′-bipyridin]-2-one], the IC50 was 7.94 nM on p38a/MK2 (setting [1]) and 12600 nM on p38a/PRAK.
For `Cc1cnc(-c2ccnc(C(C)(C)O)c2F)cc1-n1c(C)cc(OCc2ncc(F)cc2F)c(Cl)c1=O` (atropisomer, axis not shown) [Example 56B, 3-chloro-4-[(3,5-difluoropyridin-2-yl)methoxy]-1-[3′-fluoro-2′-(2-hydroxypropan-2-yl)-5-methyl-[2,4′-bipyridin]-4-yl]-6-methylpyridin-2-one], the IC50 was over 1000 nM at p38a/MK2 (setting [1]) and over 316000 nM at p38a/PRAK.
Turning to `Cc1cnc(-c2ccnc(C3(CO)CC3)n2)cc1-n1c(C)cc(OCc2ncc(F)cc2F)c(Cl)c1=O` (single isomer, unassigned) [Example 21B, rel-3-chloro-4-((3,5-difluoropyridin-2-yl)methoxy)-2′-(2-(1-(hydroxymethyl)cyclopropyl)pyrimidin-4-yl)-5′,6-dimethyl-2H-[1,4′-bipyridin]-2-one], the IC50 at p38a/MK2 (setting [1]) was 3.16 nM; on p38a/PRAK it was 2000 nM.
Turning to `[2H]C([2H])(Oc1cc(C)n(-c2c(C)cnc(-c3ccnc(C(O)(C([2H])([2H])[2H])C([2H])([2H])[2H])n3)c2F)c(=O)c1Cl)c1ncc(F)cc1F` (single isomer, unassigned) [Example 67A, rel-3-chloro-4-((3,5-difluoropyridin-2-yl)methoxy-d2)-3′-fluoro-2′-(2-(2-hydroxypropan-2-yl-1,1,1,3,3,3-d6)pyrimidin-4-yl)-5′,6-dimethyl-2H-[1,4′-bipyridin]-2-one], the IC50 on p38a/MK2 (setting [1]) was 1.58 nM; on p38a/PRAK, 316 nM.
As for `Cc1cnc(-c2ccnc(C3CC(O)C3)n2)cc1-n1c(C)cc(OCc2ncc(F)cc2F)c(Cl)c1=O` (single isomer, unassigned) [Example 26B, rel-3-chloro-4-((3,5-difluoropyridin-2-yl)methoxy)-2′-(2-(3-hydroxycyclobutyl)pyrimidin-4-yl)-5′,6-dimethyl-2H-[1,4′-bipyridin]-2-one], the IC50 on p38a/MK2 (setting [2]) is 1580 nM; at p38a/PRAK, over 316000 nM.
Consider `Cc1cnc(-c2cccc([C@](C)(O)CO)n2)cc1-n1c(C)cc(OCc2ncc(F)cc2F)c(Cl)c1=O` (atropisomer, axis not shown) [Example 14, 3-chloro-4-[(3,5-difluoropyridin-2-yl)methoxy]-2′-[6-(1,2-dihydroxypropan-2-yl)pyridin-2-yl]-5′,6-dimethyl-[1,4′-bipyridin]-2-one], for which the “p38a/MK2 (10 μM) Enzyme pIC50” value on p38a/MK2 (top dose 10 μM) is listed as 7.7. Besides, the IC50 at p38a/PRAK was 20000 nM.
On to `Cc1cnc(-n2ccc(C(C)(C)CO)n2)cc1-n1c(C)cc(OCc2ncc(F)cc2F)c(Cl)c1=O` (single isomer, unassigned) [Example 37B, rel-3-chloro-4-[(3,5-difluoropyridin-2-yl)methoxy]-2′-[3-(1-hydroxy-2-methylpropan-2-yl)pyrazol-1-yl]-5′,6-dimethyl-[1,4′-bipyridin]-2-one], for which the figures for the IC50 at p38a/MK2 (setting [1]) and at p38a/PRAK were over 1000 nM and over 316000 nM, respectively.
The corresponding values for `Cc1cnc(-c2nc(C(C)(C)O)n(C)n2)cc1-n1c(C)cc(OCc2ncc(F)cc2F)c(Cl)c1=O` (single isomer, unassigned) [Example 42B, rel-3-chloro-4-[(3,5-difluoropyridin-2-yl)methoxy]-2′-[5-(2-hydroxypropan-2-yl)-1-methyl-1,2,4-triazol-3-yl]-5′,6-dimethyl-[1,4′-bipyridin]-2-one] are over 1000 nM and over 316000 nM.
In the same order, the values of `Cc1cnc(-c2ccnc([C@@H](O)C3CC3)n2)cc1-n1c(C)cc(OCc2ncc(F)cc2F)c(Cl)c1=O` (single isomer, unassigned) [Example 35D, rel-3-chloro-2′-{2-[cyclopropyl(hydroxy)methyl]pyrimidin-4-yl}-4-[(3,5-difluoropyridin-2-yl)methoxy]-5′,6-dimethyl-[1,4′-bipyridin]-2-one] are over 1000 nM and over 316000 nM.
With `[2H]C([2H])(Oc1cc(C)n(-c2c(C)cnc(-c3cccc(C(C)(C)O)[n+]3[O-])c2F)c(=O)c1Cl)c1ncc(F)cc1F` (single isomer, unassigned) [Example 68B, rel-4′-{3-chloro-4-[(3,5-difluoropyridin-2-yl) (2H2)methoxy]-6-methyl-2-oxopyridin-1-yl}-3′-fluoro-6-(2-hydroxypropan-2-yl)-5′-methyl-[2,2′-bipyridin]-1-ium-1-olate], the IC50 is 0.2 nM on p38a/MK2 (setting [1]) and 398 nM on p38a/PRAK.
